pIC50: −log10 of the molar value.
What was measured:
TYRO3 = biological target: T1, TYRO3 (Homo sapiens, UniProt Q06418); assay: TR-FRET kinase activity assay, TYRO3; assay type: biochemical; conditions: ATP at Km, 60 minutes
T1 sequence (Q06418 41-890): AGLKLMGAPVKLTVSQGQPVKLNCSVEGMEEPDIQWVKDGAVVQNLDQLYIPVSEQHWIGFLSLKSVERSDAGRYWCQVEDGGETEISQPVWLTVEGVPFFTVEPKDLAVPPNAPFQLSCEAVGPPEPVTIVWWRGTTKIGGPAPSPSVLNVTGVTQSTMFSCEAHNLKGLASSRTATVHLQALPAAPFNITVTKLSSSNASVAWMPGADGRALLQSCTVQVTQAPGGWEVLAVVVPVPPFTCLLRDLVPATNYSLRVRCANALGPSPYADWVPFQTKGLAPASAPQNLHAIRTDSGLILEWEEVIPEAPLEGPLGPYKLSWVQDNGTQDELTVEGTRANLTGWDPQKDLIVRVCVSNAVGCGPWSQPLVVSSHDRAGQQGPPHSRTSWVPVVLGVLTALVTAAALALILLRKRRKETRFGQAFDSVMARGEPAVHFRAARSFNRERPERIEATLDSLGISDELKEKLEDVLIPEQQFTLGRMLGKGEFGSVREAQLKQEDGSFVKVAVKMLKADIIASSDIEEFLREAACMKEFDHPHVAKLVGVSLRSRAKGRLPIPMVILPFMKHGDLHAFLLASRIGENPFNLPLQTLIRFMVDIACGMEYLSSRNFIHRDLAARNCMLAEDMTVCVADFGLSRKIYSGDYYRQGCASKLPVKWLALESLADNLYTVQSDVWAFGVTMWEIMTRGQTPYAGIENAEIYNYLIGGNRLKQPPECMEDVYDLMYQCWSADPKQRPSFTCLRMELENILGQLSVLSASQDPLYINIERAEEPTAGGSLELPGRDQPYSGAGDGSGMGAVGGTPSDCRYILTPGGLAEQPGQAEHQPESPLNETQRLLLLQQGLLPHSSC
In short: (§1)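 Each kinase phosphorylated a fluorescent-labelled tyrosine peptide in 50 mM HEPES pH 7.5, 10 mM MgCl2, 1 mM EGTA, 0.01% Brij 35, 1 mM DTT at RT, with ATP at Km for that enzyme. After 60 min, EDTA quench and Eu-anti-phosphotyrosine antibody (30 min, dark); IC50 from TR-FRET decrease.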

MERTK = biological target: T2, MERTK (Homo sapiens, UniProt Q12866); assay: TR-FRET kinase activity assay, MERTK; assay type: biochemical; conditions: for pIC50: TR-FRET activity assay, ATP at Km, 60 minutes, read-out: Mer IC50
T2 sequence (Q12866 21-999): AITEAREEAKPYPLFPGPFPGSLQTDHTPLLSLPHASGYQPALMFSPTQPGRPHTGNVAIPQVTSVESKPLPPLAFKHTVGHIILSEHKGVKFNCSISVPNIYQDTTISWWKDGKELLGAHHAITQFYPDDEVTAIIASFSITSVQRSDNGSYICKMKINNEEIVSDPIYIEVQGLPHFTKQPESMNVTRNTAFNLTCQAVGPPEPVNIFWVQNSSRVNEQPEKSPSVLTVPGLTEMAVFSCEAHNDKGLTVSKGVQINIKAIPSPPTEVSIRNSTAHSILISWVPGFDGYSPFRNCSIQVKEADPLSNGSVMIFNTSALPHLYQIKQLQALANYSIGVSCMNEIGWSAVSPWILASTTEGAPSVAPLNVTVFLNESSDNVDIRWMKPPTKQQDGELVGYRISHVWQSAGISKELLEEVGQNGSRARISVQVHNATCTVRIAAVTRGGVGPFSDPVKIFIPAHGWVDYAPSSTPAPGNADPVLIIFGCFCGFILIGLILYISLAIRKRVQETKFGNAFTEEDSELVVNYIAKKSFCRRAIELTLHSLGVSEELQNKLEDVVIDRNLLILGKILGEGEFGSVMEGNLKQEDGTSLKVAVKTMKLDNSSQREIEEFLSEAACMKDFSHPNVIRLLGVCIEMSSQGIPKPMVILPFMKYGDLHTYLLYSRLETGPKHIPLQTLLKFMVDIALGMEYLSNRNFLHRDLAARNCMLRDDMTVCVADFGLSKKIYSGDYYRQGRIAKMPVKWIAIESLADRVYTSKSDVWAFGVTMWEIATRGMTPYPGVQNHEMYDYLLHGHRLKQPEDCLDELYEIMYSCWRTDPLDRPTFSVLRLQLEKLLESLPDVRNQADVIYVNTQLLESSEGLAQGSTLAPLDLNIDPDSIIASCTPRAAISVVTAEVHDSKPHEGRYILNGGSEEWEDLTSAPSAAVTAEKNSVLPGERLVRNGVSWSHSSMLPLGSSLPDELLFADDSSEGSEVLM
In short: as §1

[1] = ratio calculated as FLT3 IC50/Mer IC50
[2] = ratio of Mer to FLT3: FLT3 IC50/Mer IC50

pIC50 (TYRO3) | pIC50 (MERTK) | FLT3/Mer ratio (FLT3 IC50/Mer IC50) (MERTK; [1]) | FLT3/Mer ratio (FLT3 IC50/Mer IC50) (MERTK; [2]) | SMILES
≥ 7.00 | ≥ 7.00 | +++ (“+++” represents a ratio of >100) |  | COC[C@H](C)Nc1ncc2c(-c3cnn(Cc4nnc(C)s4)c3)cc([C@H]3CC[C@H](O)CC3)n2n1 [Compound 596]
≥ 7.00 | ≥ 7.00 | +++ (“+++” represents a ratio of >100) |  | COC[C@H](C)Nc1ncc2c(-c3cnn(C(C)(C)c4nnc([C@H]5CCCO5)o4)c3)cc([C@H]3CC[C@H](O)CC3)n2n1 [Compound 602]
≥ 7.00 | ≥ 7.00 | +++ (“+++” represents a ratio of >100) |  | COC[C@H](C)Nc1ncc2c(-c3cnn(C(C)(C)c4nnc(C(F)(F)F)o4)c3)cc([C@H]3CC[C@H](O)CC3)n2n1 [Compound 603]
≥ 7.00 | ≥ 7.00 | +++ (“+++” represents a ratio of >100) |  | COC[C@H](C)Nc1ncc2c(-c3ccnc(S(C)(=O)=O)c3)cc(C3CCC(O)CC3)n2n1 (stereo partly drawn) [Compound 627]
≥ 7.00 | ≥ 7.00 | +++ (“+++” represents a ratio of >100) |  | COC[C@H](C)Nc1ncc2c(-c3cnn(C(C)(C)c4nnc(N5CCOCC5)o4)c3)cc(C3CCC(O)CC3)n2n1 (stereo partly drawn) [Compound 631]
≥ 7.00 | ≥ 7.00 | +++ (“+++” represents a ratio of >100) |  | COC[C@H](C)Nc1ncc2c(-c3cnn(C(C)(C)C(=O)N4CCCC(C)(O)C4)c3)cc([C@H]3CC[C@H](O)CC3)n2n1 (stereo partly drawn) [Compound 621]
6.00 to 7.00 | ≥ 7.00 |  | +++ (“+++” represents a ratio of >100) | COC[C@H](C)Nc1ncc2c(-c3cnccc3C)cc([C@H]3CC[C@H](O)CC3)n2n1 [Compound 168]
6.00 to 7.00 | ≥ 7.00 |  | +++ (“+++” represents a ratio of >100) | COC[C@H](C)Nc1ncc2c(N3CC4(COC4)CC3=O)cc([C@H]3CC[C@H](O)CC3)n2n1 [Compound 178]
≥ 7.00 | ≥ 7.00 |  | +++ (“+++” represents a ratio of >100) | COC[C@H](C)Nc1ncc2c(-c3cnn(CC(=O)NS(C)(=O)=O)c3)cc([C@H]3CC[C@H](O)CC3)n2n1 [Compound 174]
≥ 7.00 | ≥ 7.00 |  | +++ (“+++” represents a ratio of >100) | COC[C@H](C)Nc1ncc2c(-c3ccc(C#N)c(F)c3)cc([C@H]3CC[C@H](O)CC3)n2n1 [Compound 169]
≥ 7.00 | ≥ 7.00 | +++ (“+++” represents a ratio of >100) |  | CC[C@]1(O)CC[C@@H](c2cc(-c3cnn(C4COC4)c3)c3cnc(N[C@@H](C)COC)nn32)CC1 [Compound 616]
≥ 7.00 | ≥ 7.00 |  | +++ (“+++” represents a ratio of >100) | COC[C@H](C)Nc1ncc2c(-c3ccc(C4(C(=O)O)CC4)cc3)cc([C@H]3CC[C@H](O)CC3)n2n1 [Compound 173]
≥ 7.00 | ≥ 7.00 | +++ (“+++” represents a ratio of >100) |  | COC[C@H](C)Nc1ncc2c(-c3cnn(C(C)(C)c4nnc([C@@H]5CCCO5)o4)c3)cc([C@H]3CC[C@H](O)CC3)n2n1 [Compound 601]
≥ 7.00 | ≥ 7.00 | +++ (“+++” represents a ratio of >100) |  | COC[C@H](C)Nc1ncc2c(-c3cnn(C(C)(C)c4nc(C)co4)c3)cc([C@H]3CC[C@H](O)CC3)n2n1 [Compound 623]
≥ 7.00 | ≥ 7.00 |  | +++ (“+++” represents a ratio of >100) | COC[C@H](C)Nc1ncc2c(-c3cnn(CC(=O)N4CCOCC4)c3)cc([C@H]3CC[C@H](O)CC3)n2n1 [Compound 162]
≥ 7.00 | ≥ 7.00 | +++ (“+++” represents a ratio of >100) |  | COC[C@H](C)Nc1ncc2c(-c3cnn(C4COC4)c3)cc([C@H]3CC[C@@](O)(C(C)C)CC3)n2n1 [Compound 618]
≥ 7.00 | ≥ 7.00 |  | +++ (“+++” represents a ratio of >100) | COC[C@H](C)Nc1ncc2c(-c3ccnc(C)c3)cc([C@H]3CC[C@@H](O)CC3)n2n1 [Compound 183]

SMILES | pIC50 (TYRO3) | pIC50 (MERTK) | FLT3/Mer ratio (FLT3 IC50/Mer IC50) (MERTK; [1]) | FLT3/Mer ratio (FLT3 IC50/Mer IC50) (MERTK; [2])
CC(CC#N)Nc1ncc2c(-c3ccc(CN4CCN(C)CC4)cc3)cc(C3CCC(O)CC3)n2n1 (stereo not drawn) [Compound 145] | ≥ 7.00 | ≥ 7.00 |  | ++ (“++” represents a ratio of between 10 and 100)
COC[C@H](C)Nc1ncc2c(-c3cnn(C4COC4)c3)cc([C@H]3CCc4[nH]ncc4C3)n2n1 [Compound 624] | ≥ 7.00 | ≥ 7.00 | ++ (“++” represents a ratio of between 10 and 100) | 
COCC(C)Nc1ncc2c(-c3ccc(C(C)N4CCOCC4)cc3)cc(C3CCC(O)CC3)n2n1 (stereo not drawn) [Compound 182] | ≥ 7.00 | ≥ 7.00 |  | ++ (“++” represents a ratio of between 10 and 100)
COC[C@H](C)N(C)c1ncc2c(-c3ccnc(C)c3)cc([C@H]3CC[C@H](O)CC3)n2n1 [Compound 175, (trans)-4-(2-(((S)-1-methoxypropan-2-yl)(methyl)amino)-5-(2-methylpyridin-4-yl)pyrrolo[2,1-f][1,2,4]triazin-7-yl)cyclohexanol] | 5.00 to 6.00 | 6.00 to 7.00 |  | ++ (“++” represents a ratio of between 10 and 100)
COC[C@H](C)Nc1ncc2c(-c3ccc(CN4CCOCC4)cc3)cc([C@H]3CC[C@@H](O)CC3)n2n1 [Compound 163, (cis)-4-(2-(((S)-1-methoxypropan-2-yl)amino)-5-(4-(morpholinomethyl)phenyl)pyrrolo[2,1-f][1,2,4]triazin-7-yl)cyclohexanol] | ≥ 7.00 | ≥ 7.00 |  | ++ (“++” represents a ratio of between 10 and 100)
COCCC(C)Nc1ncc2c(-c3ccc(CN4CCCC4)cc3)cc(C3CCC(O)CC3)n2n1 (stereo not drawn) [Compound 161] | ≥ 7.00 | ≥ 7.00 |  | ++ (“++” represents a ratio of between 10 and 100)
C[C@@H](CC(F)(F)F)Nc1ncc2c(-c3cnn(C(C)(C)C(=O)C4COC4)c3)cc([C@H]3CC[C@](C)(O)CC3)n2n1 [Compound 610] | ≥ 7.00 | ≥ 7.00 | ++ (“++” represents a ratio of between 10 and 100) | 
COC[C@H](C)Nc1ncc2c(-c3ccc(C4(N5CCOCC5)CC4)cc3)cc([C@H]3CC[C@H](O)CC3)n2n1 [Compound 184] | ≥ 7.00 | ≥ 7.00 |  | ++ (“++” represents a ratio of between 10 and 100)
C[C@@H](CC(F)(F)F)Nc1ncc2c(-c3cnn(C(C)(C)C(=O)N4CC5(COC5)C4)c3)cc([C@H]3CC[C@H](O)CC3)n2n1 [Compound 608] | ≥ 7.00 | ≥ 7.00 | ++ (“++” represents a ratio of between 10 and 100) | 
